# According to US12369583B2, “Nematicidal compositions” (SYNGENTA CROP PROTECTION AG, priority 2018, dated 2025):
# Key:
# [1] = test system: Root Knot Nematode (Meloidogyne incognita) eggs; test: Evaluation of Root Knot Nematode egg hatch; assay type: cell-based
# [2] = test system: Soybean Cyst Nematode (Heterodera glycines) eggs; test: Evaluation of Soybean Cyst Nematode egg hatch; assay type: cell-based
# [3] = test system: Lesion Nematode (Pratylenchus Spp.); test: Lesion Nematode control in corn, stained root tissue; assay type: in vivo
# Excerpt: Corn root tissue was stained using acid fuchsin/methyl blue to assess for endoparasitic, endo/ectoparasitic, and semi endoparasitic nematodes that have entered the root system, using standard methodology. The effect of pydiflumetofen was compared to fluopyram.
# [4] = test system: Root Knot (Meloidogyne incognita); test: Multiple nematode species on cotton, soil counts: Root Knot; assay type: in vivo; conditions: 0.15 mg ai/seed, measured 71 days after planting
# [5] = test system: Reniform Nematode (Rotylenchulus reniformis); test: Reniform Nematode efficacy on soybean, soil nematode count compared to check; assay type: in vivo
# [6] = test system: Soybean Cyst Nematode (Heterodera glycines); test: Control of Heterodera glycines on soybean in a greenhouse, seed treatment; assay type: in vivo
# Excerpt: Methodology for evaluating control of Heterodera glycines at all life stages on soybean in a greenhouse.
# Five thousand Heterodera glycine eggs where placed in a 1 inch hole in the center of 3.5 inch×8 inch deep plastic pots. The seeds were inoculated first when applying the active compound as a seed treatment. The treated seed was placed in the center hole and covered up with sterilized top soil. Each pot was watered by hand, with approximately 50 mls of water applied to each pot once per day. 35 day after planting, the soil was gently rinsed from the roots of the emerged plants and place in a 20 mesh over a 60-mesh sieve. The root system was blasted with water to remove mature females. The 20-mesh sieve removed. The females were washed to the bottom of the 60-mesh sieve and rinsed into a tube for counting under a stereoscope. For root penetration experiments, the roots of the plants were removed from the pots at 7-14 days after planting, rinsed clean of soil, and stained with acid fuchsin stain. Stained nematodes in the roots were counted using an electronic stereoscope.
# The action of pydiflumetofen against soybean syst nematode (SCN; Heterodera glycines) and its effect on soybean plants was assessed out as described previously, and compared to that of fluopyram. The number of SCN per stained root was counted, and the mean root weight per plant calculated, thus enabling the number of SCN per gram of root to be calculated.
# [7] = test system: Sting (Belonolaimus longicaudatus); test: In vitro dose response assay against Sting nematode; assay type: cell-based
# Excerpt: (§1) Lance (Hoplolaimus Spp.) and Sting (Belonolaimus longicaudatus) Nematode In Vitro Assay Measuring Dose Response of APN Against Sting and Lance Nematode.
# [8] = test system: Spiral (Helicotylenchus Spp.); test: Multiple nematode species on cotton, soil counts: Spiral; assay type: in vivo; conditions: 0.15 mg ai/seed, measured 71 days after planting
# Lance (Hoplolaimus Spp.) = test: In vitro dose response assay against Lance nematode; assay type: cell-based
# Excerpt: as §1
# [9] = test system: Reniform Nematode (Rotylenchulus reniformis); test: Multiple nematode species on cotton, soil counts: Reniform; assay type: in vivo; conditions: 0.15 mg ai/seed, measured 71 days after planting
# [10] = test system: Lesion Nematode (Pratylenchus brachyurus); test: Lesion Nematode efficacy on soybean, stained roots; assay type: in vivo
# Excerpt: Soybean plant roots were stained using acid fuchsin/methyl blue to assess for endoparasitic, endo/ectoparasitic, and semi endoparasitic nematodes that have entered the root system, using standard methodology.
# [11] = test system: Root Knot Nematode (Meloidogyne incognita); test: Root Knot Nematode control on soybean, gall count and rating; assay type: in vivo
# Excerpt: Root Knot Nematode (Meloidogyne incognita) Methodology for Evaluating Root Knot Nematode Gall Count and Rating Process The roots of the plants were removed from the soil. The root system was then sprayed with water to remove remaining soil. The roots were spread out on a tray or counter top and the rate of galling or place each root system under a magnification light and count galls. For gall assessment ratings, a rating on a scale of 0-10 scale was given when compared against a standard gall rating chart. Gall count was also assessed.
# [12] = test system: Soybean Cyst Nematode (Heterodera glycines) on Soybean; test: Soybean yield data, seed treatment (trials 4-6); assay type: in vivo
# [13] = Sodium hypochlorite 30%, no ppm concentration printed
# [14] = Series 1 Trial 1, 0.0375 mg ai/seed
# [15] = Series 1 Trial 1, 0.075 mg ai/seed
# [16] = Series 1 Trial 1, 0.15 mg ai/seed
# [17] = Series 1 Trial 2, 0.075 mg ai/seed
# [18] = Series 1 Trial 2, 0.15 mg ai/seed
# [19] = Series 2 Trial 1, 0.075 mg ai/seed
# [20] = Series 2 Trial 1, 0.15 mg ai/seed
# [21] = Series 2 Trial 1, 0.30 mg ai/seed
compound,measurement,setting,value
"OCl [Sodium hypochlorite 30%, Sodium hypochlorite]",Percent Egg Hatch Reduction,[1]; [13],100.0%
same,Percent Egg Hatch Reduction,[2]; [13],100.0%
O=S(=O)(CCC(F)=C(F)F)c1ncc(Cl)s1 [Fluensulfone],Percent Egg Hatch Reduction,[1]; 1 ppm,−3.5%
same,Percent Egg Hatch Reduction,[1]; 10 ppm,−0.9%
same,Percent Egg Hatch Reduction,[1]; 100 ppm,48.8%
same,Percent Egg Hatch Reduction,[2]; 1 ppm,−2.1%
same,Percent Egg Hatch Reduction,[2]; 10 ppm,−1.5%
same,Percent Egg Hatch Reduction,[2]; 100 ppm,0.5%
"CON(C(=O)c1cn(C)nc1C(F)F)C(C)Cc1c(Cl)cc(Cl)cc1Cl (centres unmarked) [Pydiflumetofen, 3-(difluoromethyl)-N-methoxy-1-methyl-N-[1-methyl-2-(2,4,6-trichloro-phenyl)ethyl]-1H-pyrazole-4-carboxamide]",Effect on nematode numbers (in words),[3],reduce nematode numbers
same,Lesion Nematode per gram of Root,[3]; 0.4 mg ai/seed,389
same,Lesion Nematodes within root system,[3]; 0.4 mg ai/seed,302
same,Lesion Nematode per gram of Root,[3]; 0.5 mg ai/seed,105
same,Lesion Nematodes within root system,[3]; 0.5 mg ai/seed,124
same,Juveniles per 100 cc s Soil,[4],132
same,Nematode Reduction Compared to Check (mean difference in soil nematode count),[5]; 0.075 mg/seed,−2912
same,Percent Egg Hatch Reduction,[1]; 1 ppm,1.7%
same,Percent Egg Hatch Reduction,[1]; 10 ppm,12.8%
same,Percent Egg Hatch Reduction,[1]; 100 ppm,30.6%
same,Cysts per Gram of Root,[6]; [14],147.9
same,Mature SCN Cysts,[6]; [14],24.0
same,Stained Juveniles w/l root,[6]; [14],22.5
same,Cysts per Gram of Root,[6]; [15],167.5
same,Mature SCN Cysts,[6]; [15],21.3
same,Stained Juveniles w/l root,[6]; [15],19.0
same,Cysts per Gram of Root,[6]; [16],105.0
same,Mature SCN Cysts,[6]; [16],16.3
same,Stained Juveniles w/l root,[6]; [16],12.5
same,SCN Within Root,[6]; [17],17.5
same,Soybean Cyst Nematodes per Gram of Root,[6]; [17],128
same,SCN Within Root,[6]; [18],5.0
same,Soybean Cyst Nematodes per Gram of Root,[6]; [18],29.6
same,SCN Cysts per Root,"[6]; Series 1 Trial 3, 0.15 mg ai/seed",10.4
same,SCN Cysts per Root,"[6]; Series 1 Trial 3, 0.30 mg ai/seed",5.5
same,Mean SCN/root,[6]; [19],52.3
same,No. SCN/g root tissue,[6]; [19],30.4
same,Mean SCN/root,[6]; [20],37.0
same,No. SCN/g root tissue,[6]; [20],16.9
same,Mean SCN/root,[6]; [21],35.2
same,No. SCN/g root tissue,[6]; [21],15.2
same,Percentage of Dead Nematodes,"[7]; exposure 1 hours, 0.1 ppm",6.3 Percentage
same,Percentage of Dead Nematodes,"[7]; exposure 1 hours, 10 ppm",5.9 Percentage
same,Percentage of Dead Nematodes,"[7]; exposure 1 hours, 100 ppm",11.3 Percentage
same,Percentage of Dead Nematodes,"[7]; exposure 24 hours, 0.1 ppm",4.7 Percentage
same,Percentage of Dead Nematodes,"[7]; exposure 24 hours, 10 ppm",59.5 Percentage
same,Percentage of Dead Nematodes,"[7]; exposure 24 hours, 100 ppm",42.9 Percentage
same,Percentage of Dead Nematodes,"[7]; exposure 48 hours, 0.1 ppm",29.3 Percentage
same,Percentage of Dead Nematodes,"[7]; exposure 48 hours, 10 ppm",56.3 Percentage
same,Percentage of Dead Nematodes,"[7]; exposure 48 hours, 100 ppm",58 Percentage
same,Percentage of Dead Nematodes,"[7]; exposure 72 hours, 0.1 ppm",34.9 Percentage
same,Percentage of Dead Nematodes,"[7]; exposure 72 hours, 10 ppm",81.1 Percentage
same,Percentage of Dead Nematodes,"[7]; exposure 72 hours, 100 ppm",97.1 Percentage
same,Juveniles per 100 cc s Soil,[8],254
same,Percentage of Dead Nematodes,"Lance (Hoplolaimus Spp.); exposure 1 hours, 0.1 ppm",12.7 Percentage
same,Percentage of Dead Nematodes,"Lance (Hoplolaimus Spp.); exposure 1 hours, 10 ppm",37.9 Percentage
same,Percentage of Dead Nematodes,"Lance (Hoplolaimus Spp.); exposure 1 hours, 100 ppm",74.8 Percentage
same,Percentage of Dead Nematodes,"Lance (Hoplolaimus Spp.); exposure 24 hours, 0.1 ppm",68.5 Percentage
same,Percentage of Dead Nematodes,"Lance (Hoplolaimus Spp.); exposure 24 hours, 10 ppm",81.6 Percentage
same,Percentage of Dead Nematodes,"Lance (Hoplolaimus Spp.); exposure 24 hours, 100 ppm",23.9 Percentage
same,Percentage of Dead Nematodes,"Lance (Hoplolaimus Spp.); exposure 48 hours, 0.1 ppm",41 d Percentage
same,Percentage of Dead Nematodes,"Lance (Hoplolaimus Spp.); exposure 48 hours, 10 ppm",93.8 Percentage
same,Percentage of Dead Nematodes,"Lance (Hoplolaimus Spp.); exposure 48 hours, 100 ppm",74.8 Percentage
same,Percentage of Dead Nematodes,"Lance (Hoplolaimus Spp.); exposure 72 hours, 0.1 ppm",32.9 Percentage
same,Percentage of Dead Nematodes,"Lance (Hoplolaimus Spp.); exposure 72 hours, 10 ppm",93.8 Percentage
same,Percentage of Dead Nematodes,"Lance (Hoplolaimus Spp.); exposure 72 hours, 100 ppm",77.5 Percentage
same,Juveniles per 100 cc s Soil,[9]; Reniform (adult),2.8
same,Juveniles per 100 cc s Soil,[9]; Reniform (juvenile),1752
same,Lesion Nematode per gram of Root,[10]; 0.0375 mg ai/seed,164.3
same,Lesion Nematodes w/l root,[10]; 0.0375 mg ai/seed,44.9
same,Lesion Nematode per gram of Root,[10]; 0.075 mg ai/seed,141.5
same,Lesion Nematodes w/l root,[10]; 0.075 mg ai/seed,38.3
same,Lesion Nematode per gram of Root,[10]; 0.15 mg ai/seed,105.3
same,Lesion Nematodes w/l root,[10]; 0.15 mg ai/seed,32.3
same,Root Knot Nematode Galling (0-10 scale),[11]; 0.075 mg ai/seed,6.8
same,Root Knot Nematode Galls per Root,[11]; 0.075 mg ai/seed,52.6
same,Root Knot Nematode Galling (0-10 scale),[11]; 0.15 mg ai/seed,1.5
same,Root Knot Nematode Galls per Root,[11]; 0.15 mg ai/seed,11.2
same,Mean Difference in Yield Compared to Checks,"[12]; Trial 4, 0.075 mg ai/seed",+3.0 Bu/Ac
same,Mean Difference in Yield Compared to Checks,"[12]; Trial 5, 0.075 mg ai/seed",+3.7 Bu/Ac
same,Mean Difference in Yield Compared to Checks,"[12]; Trial 6, 0.075 mg ai/seed",+7.5 Bu/Ac
same,Percent Egg Hatch Reduction,[2]; 1 ppm,4.7%
same,Percent Egg Hatch Reduction,[2]; 10 ppm,34.7%
same,Percent Egg Hatch Reduction,[2]; 100 ppm,64.0%
CNC(=O)O/N=C/C(C)(C)SC [Aldicarb],Nematode Reduction Compared to Check (mean difference in soil nematode count),[5]; in-furrow (5.6 Kg/Ha),−1937
c1ccc(-c2noc(-c3cccs3)n2)cc1 [Tioxazafen],Percent Egg Hatch Reduction,[1]; 1 ppm,−1.9%
same,Percent Egg Hatch Reduction,[1]; 10 ppm,−0.8%
same,Percent Egg Hatch Reduction,[1]; 100 ppm,4.4%
same,Percent Egg Hatch Reduction,[2]; 1 ppm,0.4%
same,Percent Egg Hatch Reduction,[2]; 10 ppm,−0.5%
same,Percent Egg Hatch Reduction,[2]; 100 ppm,−0.9%
"O=C(NCCc1ncc(C(F)(F)F)cc1Cl)c1ccccc1C(F)(F)F [Fluopyram, reference compound]",Lesion Nematode per gram of Root,[3]; 0.25 mg ai/seed,211
same,Lesion Nematodes within root system,[3]; 0.25 mg ai/seed,108
same,Nematode Reduction Compared to Check (mean difference in soil nematode count),[5]; 0.15 mg/seed,−3146
same,Percent Egg Hatch Reduction,[1]; 1 ppm,1.1%
same,Percent Egg Hatch Reduction,[1]; 10 ppm,55.9%
same,Percent Egg Hatch Reduction,[1]; 100 ppm,54.7%
same,Mean SCN/root,[6]; [19],20.8
same,No. SCN/g root tissue,[6]; [19],12.1
same,Mean SCN/root,[6]; [20],17.7
same,No. SCN/g root tissue,[6]; [20],30.3
same,Mean SCN/root,[6]; [21],7.3
same,No. SCN/g root tissue,[6]; [21],23.4
same,Mean Difference in Yield Compared to Checks,"[12]; Trial 4, 0.15 mg ai/seed",−3.5 Bu/Ac
same,Mean Difference in Yield Compared to Checks,"[12]; Trial 5, 0.15 mg ai/seed",+5.4 Bu/Ac
same,Mean Difference in Yield Compared to Checks,"[12]; Trial 6, 0.15 mg ai/seed",+2.9 Bu/Ac
same,Percent Egg Hatch Reduction,[2]; 1 ppm,−1.3%
same,Percent Egg Hatch Reduction,[2]; 10 ppm,4.5%
same,Percent Egg Hatch Reduction,[2]; 100 ppm,61.9%
